Measured values reported in patent US7674819B2 (Warner-Lambert Company LLC, priority 2005, dated 2010).
Positions count from the first letter of the chain named. Where two headings read alike, the source gives them in different places.

Columns and labels:
hAR = molecular target: T1, hAR (Homo sapiens, UniProt P10275); experiment: Competitive binding of 3H-DHT to baculovirus/Sf9 generated hAR extracts; conditions: one hour at 4° C., mean of multiple tests
T1 sequence (P10275 1-920): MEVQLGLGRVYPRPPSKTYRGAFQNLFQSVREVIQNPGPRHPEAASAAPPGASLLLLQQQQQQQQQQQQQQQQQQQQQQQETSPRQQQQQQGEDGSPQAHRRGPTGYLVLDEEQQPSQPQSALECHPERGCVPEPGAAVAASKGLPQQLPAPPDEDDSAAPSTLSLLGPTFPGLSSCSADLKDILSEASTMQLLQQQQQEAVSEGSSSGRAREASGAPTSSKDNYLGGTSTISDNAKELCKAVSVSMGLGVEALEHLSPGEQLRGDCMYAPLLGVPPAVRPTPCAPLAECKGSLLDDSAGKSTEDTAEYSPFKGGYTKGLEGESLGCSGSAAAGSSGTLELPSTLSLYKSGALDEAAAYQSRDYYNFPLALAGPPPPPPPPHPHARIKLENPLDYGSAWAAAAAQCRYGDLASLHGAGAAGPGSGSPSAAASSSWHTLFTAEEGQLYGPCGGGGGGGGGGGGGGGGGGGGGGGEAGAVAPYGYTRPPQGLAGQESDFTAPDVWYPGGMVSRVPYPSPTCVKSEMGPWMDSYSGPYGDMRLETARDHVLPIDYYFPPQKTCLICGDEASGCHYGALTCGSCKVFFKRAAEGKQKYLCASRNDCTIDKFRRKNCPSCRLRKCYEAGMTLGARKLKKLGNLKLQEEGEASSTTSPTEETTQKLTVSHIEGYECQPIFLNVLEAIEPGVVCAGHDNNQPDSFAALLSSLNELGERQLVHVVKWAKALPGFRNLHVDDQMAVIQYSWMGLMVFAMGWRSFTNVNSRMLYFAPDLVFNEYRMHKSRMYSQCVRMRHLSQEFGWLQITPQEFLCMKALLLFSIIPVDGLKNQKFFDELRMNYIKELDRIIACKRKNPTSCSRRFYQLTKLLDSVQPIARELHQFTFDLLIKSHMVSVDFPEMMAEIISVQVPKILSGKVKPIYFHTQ
Procedure, shortened: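 Baculovirus/Sf9-expressed hAR extract incubated with test compound, hydroxylapatite and 1 nM 3H-DHT tracer for 1 h at 4° C, then washed free of unbound tracer. Affinity given as concentration inhibiting half of maximal 3H-DHT binding.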

androgen receptor = molecular target: T2, androgen receptor (Homo sapiens, UniProt P10275); experiment: AR Antagonist Cell Assay (MDA-MB453-MMTV clone 54-19, luciferase reporter); type: cell-based; conditions: inhibition of induction by DHT (final concentration at 100 μM), 17 hr, compound 0.32-1000 nM, mean of multiple tests
T2 sequence (P10275 1-920 Q868H): T1 sequence (P10275 1-920) with Q868H
Procedure, shortened: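 MDA-MB453 breast tumour cells stably carrying an ARE-containing MMTV promoter driving firefly luciferase, plated overnight at 37° C in charcoal-treated serum medium. DHT added (final […]) and incubated 17 hr at 37° C. Luminescence read after adding luciferase buffer; values are means of multiple tests.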

spinal BMD = conditions: after 7 years of treatment; cited from earlier work
[1] = IC50, concentration at which one half of maximum binding of 1 nM 3H-DHT to hAR is inhibited

IC50 (hAR; concentration at which one half of maximum binding of 1 nM 3H-DHT to hAR is inhibited, read-out: IC50) [nM] | SMILES | melting point [°C] | IC50 (hAR; [1]) [nM] | IC50 (androgen receptor) [nM] | IC50 (androgen receptor; read-out: IC50) [nM] | increase in spinal BMD (spinal BMD) [%]
 | C[C@@H](c1ccc(F)cc1)N1CC(C)(C)[C@@H](Oc2ccc(C#N)c(C(F)(F)F)c2)C1=O (mixture of isomers) [Example 71, (±)-4-{1-[1-(4-Fluoro-phenyl)-ethyl]-4,4-dimethyl-2-oxo-pyrrolidin-3-yloxy}-2-trifluoromethyl-benzonitrile] | 114 to 115 |  |  |  | 
 | CSc1ccc(CN2CC(C)(C)C(Oc3ccc(C#N)c(C(F)(F)F)c3)C2=O)cc1 (racemic) [Example 22, (±)-4-[4,4-Dimethyl-1-(4-methylsulfanyl-benzyl)-2-oxo-pyrrolidin-3-yloxy]-2-trifluoromethyl-benzonitrile] | 44.1 to 44.8 | 40 | 99 |  | 
 | C[C@@H](c1ccc(F)cc1)N1CC(C)(C)[C@@H](Oc2ccc(C#N)c(C(F)(F)F)c2)C1=O (racemic) [Example 70, (±)-4-{1-[1-(4-Fluoro-phenyl)-ethyl]-4,4-dimethyl-2-oxo-pyrrolidin-3-yloxy}-2-trifluoromethyl-benzonitrile] | 82 to 83 | 52 | 85 |  | 
 | CC(c1cccc(O)c1)N1CC(C)(C)C(Oc2ccc(C#N)c(C(F)(F)F)c2)C1=O (single isomer, unassigned; (+)) [Example 24, (+)-4-{1-[1-(3-Hydroxy-phenyl)-ethyl]-4,4-dimethyl-2-oxo-pyrrolidin-3-yloxy}-2-trifluoromethyl-benzonitrile] | 185.1 to 185.8 | 10 | 33 |  | 
 | CC1(C)CN(Cc2nnc(-c3ccc(O)cc3O)o2)C(=O)C1Oc1ccc(C#N)c(C(F)(F)F)c1 (centres unmarked) [Example 123, 4-{1-[5-(2,4-Dihydroxy-phenyl)-[1,3,4]oxadiazol-2-ylmethyl]-4,4-dimethyl-2-oxo-pyrrolidin-3-yloxy}-2-trifluoromethyl-benzonitrile] |  | 61 |  | 176 | 
198 | CC1(C)CN(Cc2nnc(-c3ccccc3Cl)o2)C(=O)C1Oc1ccc(C#N)c(C(F)(F)F)c1 (centres unmarked) [Example 127, 4-{1-(5-(2-Chloro-phenyl)-[1,3,4]oxadiazol-2-ylmethyl]-4,4-dimethyl-2-oxo-pyrrolidin-3-yloxy}-2-trifluoromethyl-benzonitrile] |  |  |  | > 1000 | 
 | CC(c1nnc(-c2ccccc2O)o1)N1CC(C)(C)C(Oc2ccc(C#N)c(C(F)(F)F)c2)C1=O (centres unmarked) [Example 130, 4-(1-{1-[5-(2-hydroxy-phenyl)-[1,3,4]oxadiazol-2-yl]-ethyl}-4,4-dimethyl-2-oxo-pyrrolidin-3-yloxy)-2-trifluoromethyl-benzonitrile] |  | 85 |  | 198 | 
 | NCCCC(O)(P(=O)(O)O)P(=O)(O)O [alendronate] |  |  |  |  | ≤ 11
